Experimental data from patent US4985447A, “Certain benzoquinones, naphthoquinones and derivatives thereof which exhibit thromboxane A2 synthetase inhibition or receptor antagonism and the like” (Takeda Chemical Industries, Ltd., priority 1986, dated 1991).

Key:
5-lipoxygenase = target: T1, 5-lipoxygenase (Rattus norvegicus, UniProt P12527); assay: Inhibition of 5-lipoxygenase (production of 5-HETE in RBL-1 cells); assay type: cell-based, rat (RBL-1, rat basophilic leukemia cells); conditions: for inhibition at 1 µM: 10^-6 M; for inhibition at 0.1 µM: 10^-7 M
T1 construct: endogenous in cells; host or cells: RBL-1 cells (rat basophilic leukemia)
T1 sequence (P12527 1-673): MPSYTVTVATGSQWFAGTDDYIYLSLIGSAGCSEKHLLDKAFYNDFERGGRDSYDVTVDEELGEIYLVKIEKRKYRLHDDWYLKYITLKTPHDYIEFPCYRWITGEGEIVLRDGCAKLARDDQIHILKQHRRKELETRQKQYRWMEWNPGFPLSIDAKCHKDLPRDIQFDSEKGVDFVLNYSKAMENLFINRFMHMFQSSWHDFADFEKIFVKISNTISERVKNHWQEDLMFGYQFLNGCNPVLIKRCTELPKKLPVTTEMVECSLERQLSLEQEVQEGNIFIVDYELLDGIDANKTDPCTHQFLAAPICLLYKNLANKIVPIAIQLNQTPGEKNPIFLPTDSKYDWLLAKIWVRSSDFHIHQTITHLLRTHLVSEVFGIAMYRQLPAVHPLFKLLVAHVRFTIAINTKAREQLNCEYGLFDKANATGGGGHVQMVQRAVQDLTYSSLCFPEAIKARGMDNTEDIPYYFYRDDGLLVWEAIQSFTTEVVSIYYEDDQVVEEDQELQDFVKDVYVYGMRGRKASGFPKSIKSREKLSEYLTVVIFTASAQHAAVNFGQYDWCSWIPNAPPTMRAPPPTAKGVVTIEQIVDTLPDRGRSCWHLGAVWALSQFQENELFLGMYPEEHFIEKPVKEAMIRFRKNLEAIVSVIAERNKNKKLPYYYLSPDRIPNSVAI
Method: Inhibition of 5-lipoxygenase
10^7 RBL-1 cells (rat basophilic leukemia cells) were suspended in 0.5 ml of MCM (mast cell medium ). To the suspension was subsequently added a solution consisting of 0.5 ml of MCM, 50 μg of arachidonic acid, 10 μg of A-23187 (calcium ionophore, Eli Lilly), and a solution of a quinone compound in ethanol at the final concentration of 1 μM, 0.1 μM, 0.01 μM or 0.001 μM of the test compound was added and allowed to react at 37° C. for 20 minutes. After the reaction, 4 ml of ethanol containing 1,4-dimethoxy-2-methyl-3-(3-methoxypropyl)naphthalene as an internal standard were added, mixed well by shaking, and kept at room temperature for 10 minutes. Then the mixture was centrifuged for 10 minutes (2000 rpm), and the supernatant was separated. The supernatant was concentrated to dryness under reduced pressure. To the concentrate, 0.5 ml of 60% aqueous methanol was added. One hundred μl of this solution was subjected to high performance liquid chromatography for quantitative analysis of 5-HETE (5-hydroxyeicosatetraenoic acid). The amount of 5-HETE was analyzed by measurement of the absorbance at […] with a UV absorption monitor.
Inhibitory effect (IE) of production of 5-HETE is expressed by (1-b/a)×100, wherein a is the peak height or the area corrected with the peak due to the internal standard in the absence of the quinone compound, and b is the peak hight or peak area corrected with the peak due to the internal standard in the presence of the quinone compound.

[1] = test system: lipid peroxide in rat brain homogenate; assay: Inhibition of production of lipid peroxide in rat brain homogenate; assay type: biochemical, rat (Sprague-Dawley)
Method: Procedure: Sprague-Dawley rats (male, 9-15 weeks old) anesthetized with pentobarbital (50 mg/kg, intraperitoneal administration) were venesected and the brain tissue was resected. The tissue was homogenized in phosphate buffer (pH 7.4), and used as a 5% homogenate (on weight basis). The brain homogenate was allowed to react at 37° C. for 1 hour, and the amount of lipid peroxide produced was determined with the thiobarbituric acid method according to the method of Okawa et al. (Analytical Biochem 95 551, 1979). The drug was added to the 5% homogenate before the reaction at 37° C. for 1 hour so that the final concentration might be 5×10^-7 or 10^-6 M. Inhibition of production of lipid peroxide was expressed as the rate of inhibition in % of the amount produced in the solvent(DMSO)-treated group.

inhibition at 1 µM (5-lipoxygenase) [%] | inhibition at 0.1 µM (5-lipoxygenase) [%] | SMILES | Inhibition of production of lipid peroxide in rat brain homogenate ([1]; 5 × 10^-7 M) [%] | Inhibition of production of lipid peroxide in rat brain homogenate ([1]; 10^-6 M) [%]
84 | 46 | CC1=C(C)C(=O)C(C(C)c2cccnc2)=C(C)C1=O (centres unmarked) [Compound No. 1, 3,5,6-trimethyl-2-[1-(3-pyridyl)ethyl]-1,4-benzoquinone] | 6 | 90
64 | 16 | CC1=C(C)C(=O)C(C(CCCCCC(=O)O)c2cccnc2)=C(C)C1=O (centres unmarked) [Compound No. 13, 7-(3-pyridyl)-7-(3,5,6-trimethyl-1,4-benzoquinon-2-yl)heptanoic acid] | 20 | 84
